Assay results: patent US6737383B1, “Herbicidal oxadiazolidines” (priority 1999, dated 2004)

Legend:
bedstraw = experiment: Test B pre/postemergence bedstraw; format: in vivo, Galium aparine; details: Preemergence
Outline: (§1)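 Response is a visual 0-to-10 score relative to untreated plants, where 0 means no effect and 10 means complete control, taken twelve to sixteen days after application. Treatments went onto soil at planting and onto foliage of 1- to 4-leaf plants, using a surfactant-containing non-phytotoxic solvent.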

blackgrass = experiment: Test B pre/postemergence blackgrass; format: in vivo, Alopecurus myosuroides
Outline: as §1

surinam grass = experiment: Test B pre/postemergence surinam grass; format: in vivo, Brachiaria decumbens
Outline: as §1

cocklebur = experiment: Test B pre/postemergence cocklebur; format: in vivo, Xanthium strumarium
Outline: as §1

corn = experiment: Test B pre/postemergence corn; format: in vivo, Zea mays
Outline: as §1

crabgrass = experiment: Test B pre/postemergence crabgrass; format: in vivo, Digitaria sanguinalis
Outline: as §1

giant foxtail = experiment: Test B pre/postemergence giant foxtail; format: in vivo, Setaria faberii
Outline: as §1

morningglory = experiment: Test B pre/postemergence morningglory; format: in vivo, Ipomoea hederacea
Outline: as §1

pigweed = experiment: Test B pre/postemergence pigweed; format: in vivo, Amaranthus retroflexus
Outline: as §1

rape = experiment: Test B pre/postemergence rape; format: in vivo, Brassica napus
Outline: as §1

soybean = experiment: Test B pre/postemergence soybean; format: in vivo, Glycine max
Outline: as §1

sugar beet = experiment: Test B pre/postemergence sugar beet; format: in vivo, Beta vulgaris
Outline: as §1

velvetleaf = experiment: Test B pre/postemergence velvetleaf; format: in vivo, Abutilon theophrasti
Outline: as §1

wheat = experiment: Test B pre/postemergence wheat; format: in vivo, Triticum aestivum
Outline: as §1

wild oat = experiment: Test B pre/postemergence wild oat; format: in vivo, Avena fatua
Outline: as §1

purple nutsedge = experiment: Test B pre/postemergence purple nutsedge; format: in vivo, Cyperus rotundus
Outline: as §1

[1] = Postemergence, Rate 62 g/ha, scale of 0 to 10, 0 is no effect, 10 is complete control
[2] = Postemergence, Rate 125 g/ha, scale 0 to 10, 0 is no effect, 10 is complete control
[3] = Postemergence, Rate 500 g/ha, scale 0 to 10, 0 is no effect, 10 is complete control
[4] = Preemergence, Rate 62 g/ha, scale of 0 to 10 where 0 is no effect and 10 is complete control
[5] = Preemergence, Rate 125 g/ha, scale 0 to 10, 0 is no effect, 10 is complete control
[6] = Preemergence, Rate 500 g/ha, scale of 0 to 10 where 0 is no effect and 10 is complete control
[7] = Rate 250 g/ha, Postemergence, scale of 0 to 10 where 0 is no effect and 10 is complete control

## CC(C)N(C(=O)n1oc(=O)n(CCC(F)(F)F)c1=O)c1ccc(F)cc1F [Compound 525]
bedstraw; Rate 62 g/ha, scale of 0 to 10 where 0 is no effect and 10 is complete control
  Plant response rating, Bedstraw: 0
bedstraw; Rate 125 g/ha, scale 0 to 10, 0 is no effect, 10 is complete control
  Bedstraw plant response rating: 0
bedstraw; Rate 250 g/ha
  Bedstraw plant response rating (0 to 10 scale): 0
bedstraw; Rate 500 g/ha, scale of 0 to 10 where 0 is no effect and 10 is complete control
  Bedstraw plant response rating: 0
blackgrass; [1]
  Blackgrass plant response rating: 4
blackgrass; [2]
  Blackgrass plant response rating: 6
blackgrass; [3]
  Plant response rating, Blackgrass: 8
blackgrass; [4]
  Plant response rating, Blackgrass: 8
blackgrass; [5]
  Blackgrass plant response rating: 7
blackgrass; [6]
  Blackgrass plant response rating: 8
blackgrass; [7]
  Plant response rating, Blackgrass: 8
Surinam grass; [1]
  B. signalgrass plant response rating: 0
Surinam grass; [2]
  B. signalgrass plant response rating: 2
Surinam grass; [3]
  Plant response rating, B. signalgrass: 8
Surinam grass; [4]
  Plant response rating, B. signalgrass: 9
Surinam grass; [6]
  B. signalgrass plant response rating: 9
Surinam grass; [7]
  Plant response rating, B. signalgrass: 2
cocklebur; [1]
  Cocklebur plant response rating: 2
cocklebur; [2]
  Cocklebur plant response rating: 2
cocklebur; [3]
  Plant response rating, Cocklebur: 2
cocklebur; [4]
  Plant response rating, Cocklebur: 0
cocklebur; [5]
  Cocklebur plant response rating: 0
cocklebur; Preemergence, Rate 250 g/ha
  Cocklebur plant response rating (0 to 10 scale): 0
cocklebur; [7]
  Plant response rating, Cocklebur: 2
corn; [1]
  Corn plant response rating: 0
corn; [2]
  Corn plant response rating: 0
corn; [3]
  Plant response rating, Corn: 2
corn; [4]
  Plant response rating, Corn: 0
corn; [5]
  Corn plant response rating: 0
corn; Preemergence, Rate 250 g/ha
  Corn plant response rating (0 to 10 scale): 4
corn; [6]
  Corn plant response rating: 8
corn; [7]
  Plant response rating, Corn: 2
crabgrass; [1]
  Crabgrass plant response rating: 6
crabgrass; [3]
  Plant response rating, Crabgrass: 9
crabgrass; [4]
  Plant response rating, Crabgrass: 9
crabgrass; [5]
  Crabgrass plant response rating: 9
crabgrass; Preemergence, Rate 250 g/ha
  Crabgrass plant response rating (0 to 10 scale): 10
crabgrass; [6]
  Crabgrass plant response rating: 10
crabgrass; [7]
  Plant response rating, Crabgrass: 9
Giant foxtail; [1]
  Giant foxtail plant response rating: 5
Giant foxtail; [2]
  Giant foxtail plant response rating: 8
Giant foxtail; [3]
  Plant response rating, Giant foxtail: 9
Giant foxtail; [4]
  Plant response rating, Giant foxtail: 9
Giant foxtail; [5]
  Giant foxtail plant response rating: 10
Giant foxtail; Preemergence, Rate 250 g/ha
  Giant foxtail plant response rating (0 to 10 scale): 10
Giant foxtail; [6]
  Giant foxtail plant response rating: 10
Giant foxtail; [7]
  Plant response rating, Giant foxtail: 9
morningglory; [1]
  Morningglory plant response rating: 2
morningglory; [2]
  Morningglory plant response rating: 2
morningglory; [3]
  Plant response rating, Morningglory: 3
morningglory; [4]
  Plant response rating, Morningglory: 0
morningglory; [5]
  Morningglory plant response rating: 0
morningglory; Preemergence, Rate 250 g/ha
  Morningglory plant response rating (0 to 10 scale): 0
morningglory; [6]
  Morningglory plant response rating: 6
morningglory; [7]
  Plant response rating, Morningglory: 2
pigweed; [1]
  Redroot pigweed plant response rating: 2
pigweed; [2]
  Redroot pigweed plant response rating: 2
pigweed; [3]
  Plant response rating, Redroot pigweed: 8
pigweed; [4]
  Plant response rating, Redroot pigweed: 0
pigweed; [5]
  Redroot pigweed plant response rating: 0
pigweed; [6]
  Redroot pigweed plant response rating: 3
pigweed; [7]
  Plant response rating, Redroot pigweed: 9
rape; [1]
  Rape plant response rating: 0
rape; [2]
  Rape plant response rating: 0
rape; [3]
  Plant response rating, Rape: 8
rape; [4]
  Plant response rating, Rape: 0
rape; [5]
  Rape plant response rating: 0
rape; [6]
  Rape plant response rating: 4
rape; [7]
  Plant response rating, Rape: 3
soybean; [1]
  Soybean plant response rating: 3
soybean; [2]
  Soybean plant response rating: 5
soybean; [4]
  Plant response rating, Soybean: 0
soybean; [5]
  Soybean plant response rating: 0
soybean; Preemergence, Rate 250 g/ha
  Soybean plant response rating (0 to 10 scale): 0
soybean; [6]
  Soybean plant response rating: 0
soybean; [7]
  Plant response rating, Soybean: 5
Sugar beet; [1]
  Sugarbeets plant response rating: 0
Sugar beet; [2]
  Sugarbeets plant response rating: 0
Sugar beet; [3]
  Plant response rating, Sugarbeets: 8
Sugar beet; [4]
  Plant response rating, Sugarbeets: 5
Sugar beet; [5]
  Sugarbeets plant response rating: 8
Sugar beet; [6]
  Sugarbeets plant response rating: 9
Sugar beet; [7]
  Plant response rating, Sugarbeets: 6
velvetleaf; [1]
  Velvetleaf plant response rating: 2
velvetleaf; [2]
  Velvetleaf plant response rating: 3
velvetleaf; [3]
  Plant response rating, Velvetleaf: 3
velvetleaf; [4]
  Plant response rating, Velvetleaf: 2
velvetleaf; [5]
  Velvetleaf plant response rating: 3
velvetleaf; Preemergence, Rate 250 g/ha
  Velvetleaf plant response rating (0 to 10 scale): 3
velvetleaf; [6]
  Velvetleaf plant response rating: 4
velvetleaf; [7]
  Plant response rating, Velvetleaf: 3
wheat; [1]
  Wheat plant response rating: 0
wheat; [2]
  Wheat plant response rating: 2
wheat; [3]
  Plant response rating, Wheat: 5
wheat; [4]
  Plant response rating, Wheat: 3
wheat; [6]
  Wheat plant response rating: 3
wheat; [7]
  Plant response rating, Wheat: 5
Wild oat; [1]
  Wild oats plant response rating: 0
Wild oat; [2]
  Wild oats plant response rating: 2
Wild oat; [3]
  Plant response rating, Wild oats: 6
Wild oat; [4]
  Plant response rating, Wild oats: 5
Wild oat; [6]
  Wild oats plant response rating: 8
Wild oat; [7]
  Plant response rating, Wild oats: 4
Purple nutsedge; [1]
  Nutsedge plant response rating: 0
Purple nutsedge; [2]
  Nutsedge plant response rating: 0
Purple nutsedge; [3]
  Plant response rating, Nutsedge: 5
Purple nutsedge; [4]
  Plant response rating, Nutsedge: 0
Purple nutsedge; [5]
  Nutsedge plant response rating: 0
Purple nutsedge; Preemergence, Rate 250 g/ha
  Nutsedge plant response rating (0 to 10 scale): 0
Purple nutsedge; [6]
  Nutsedge plant response rating: 0
Purple nutsedge; [7]
  Plant response rating, Nutsedge: 5
